Laboratory results reported in US20230416786A1, “USE OF AMINOQUINOLINE COMPOUNDS FOR HIGHER GENE INTEGRATION” (CELLECTIS SA, priority 2020, published 2023).
Structures can show the parent of a compound that is named as a salt. Where two headings read alike, the source gives them in different places.

Experiments:
HSCs = assay: Targeted integration of HLA-E repair template at the B2M locus in HSCs (B2M TALEN + AAV-HLA-E, flow cytometry of HLA-E positive cells); assay type: cell-based, human
From the text: (§1) The targeted sequences are […]gctcgcgctactc[…]
For HSCs, AAV-HLA-E particles was thawed on ice and aliquot to transduce each of the HSC samples at 10^4 viral genome per cell (vg/cell).

primary T-cells = details: Example 3, FIG. 3, TRAC TALEN + AAV-CAR-MESO, without chloroquine 29%
From the text: as §1

CCN(CC)CCCC(C)Nc1ccnc2cc(Cl)ccc12 (centres unmarked) [chloroquine, N4-(7-chloroquinolin-4-yl)-N1,N1-diethylpentane-1,4-diamine diphosphate]
HLA-E expression (reflects targeted integration at the B2M locus) (HSCs; Example 2, FIG. 2, B2M TALEN with HLA-E repair matrix, chloroquine 0.1 mM, without chloroquine 23.4%): ~38%
optimum CQ dose for HLA-E positive cells (HSCs; Example 4, FIG. 4, B2M TALEN + AAV-HLA-E): 0.02 nM
percentage of HLA-E positive cells (HSCs; Example 6, FIG. 6E, B2M TALEN + i53 mRNAs (inhibition of 53BP1) + AAV-HLA-E combined with chloroquine 0.02 mM, control 31.5%): 63.6%
percentage of HLA-E positive cells (HSCs; Example 6, FIGS. 6B and 6C, B2M TALEN + AAV-HLA-E, without 53BP1 inhibition, chloroquine 0.02 mM, without any compound 31.5%): 53.4%
CAR positive cells (nuclease-induced targeted integration at TRAC locus) (primary T-cells; chloroquine 0.05 mM): 35%
CAR positive cells (nuclease-induced targeted integration at TRAC locus) (primary T-cells; second chloroquine concentration (0.1 mM per first sentence)): 33.8%

CCN(CCO)CCCC(C)Nc1ccnc2cc(Cl)ccc12 (centres unmarked) [hydroxychloroquine, 7-Chloro-4-[4-(N-ethyl-N-b-hydroxyethylamino)-1-methylbutylamino]quinoline sulfate]
percentage of HLA-E positive cells (HSCs; Example 5, FIG. 5, B2M TALEN + AAV-HLA-E, compound 0.02 mM, without any compound 33.3%): 43.4%

i53: mRNAs encoding i53 (SEQ ID NO. 40), a 53BP1 inhibitor, co-electroporated with B2M TALEN
percentage of HLA-E positive cells (HSCs; Example 6, FIGS. 6B and 6D, B2M TALEN + 4 μg/million cells mRNAs encoding i53 + AAV-HLA-E, without chloroquine, control 31.5%): 39.9%
